{"source": "patent EP3381907A1", "about": "“SYMMETRICAL 2-AMINOPHENYL-BENZAZOLYL-5-ACETATE COMPOUNDS AND THEIR USE AS ANTI-HEPARANASE” (Leadiant Biosciences SA, priority 2017, dated 2018)", "key": {"heparanase": {"molecular_target": "T1, heparanase (Homo sapiens, UniProt Q9Y251)", "T1 sequence (Q9Y251 158-543 limits assumed)": "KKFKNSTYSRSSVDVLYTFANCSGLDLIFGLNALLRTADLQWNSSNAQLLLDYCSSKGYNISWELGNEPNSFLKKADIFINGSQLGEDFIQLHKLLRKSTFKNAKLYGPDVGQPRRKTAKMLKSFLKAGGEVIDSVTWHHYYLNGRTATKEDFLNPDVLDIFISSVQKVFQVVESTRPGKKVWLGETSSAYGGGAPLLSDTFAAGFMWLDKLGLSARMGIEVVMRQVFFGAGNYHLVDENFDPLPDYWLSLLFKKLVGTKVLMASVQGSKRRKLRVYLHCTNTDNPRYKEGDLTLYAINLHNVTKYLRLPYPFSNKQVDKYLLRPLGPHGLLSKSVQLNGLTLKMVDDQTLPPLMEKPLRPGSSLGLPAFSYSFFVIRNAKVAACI", "T1 sequence (Q9Y251 36-109 limits assumed)": "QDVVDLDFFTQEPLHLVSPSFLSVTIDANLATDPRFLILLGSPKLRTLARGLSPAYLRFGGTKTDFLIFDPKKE", "assay": "AGA*IA assay: colorimetric fondaparinux cleavage assay for heparanase inhibition (WST-1)", "type": "biochemical", "details": "2.5 nM heparanase, 100 µM fondaparinux, pH 5.0, 3 h at 37°C; class symbols", "procedure": "All compounds were tested in a simple, accurate and robust microplate assay based on the cleavage of the synthetic heparin fragment, the pentasaccharide Fondaparinux (AGA*IA). This assay was originally developed by Hammond and coworkers [Hammond E, Li CP, Ferro V. Development of a colorimetric assay for heparanase activity suitable for kinetic analysis and inhibitor screening. Anal. Biochem. 396(1), 112-116 (2010)], where Fondaparinux corresponds to the methyl glycoside of the antithrombin III (ATIII)-activating pentasaccharide sequence of heparin. Fondaparinux is cleaved by heparanase to generate a reducing disaccharide, which can be quantitatively measured via a colorimetric or a fluorescence assay, the last by the fluorescent sensor polymer-H [Schiemann S, Lühn S, Alban S. Development of both colorimetric and fluorescence heparinase activity assays using fondaparinux as substrate. Anal. Biochem. 427(1), 82-89 (2012)].\nThe assay measures the appearance of the disaccharide product of heparanase-catalyzed fondaparinux cleavage colorimetrically using the tetrazolium salt WST-1. Assay was essentially performed as described with minor modifications. Briefly, NUNC ELISA 96-well plates were pre-treated with a solution of 4% BSA (bovin serum albumin) in phosphate-buffered saline containing 0.05% Tween 20 (PBST), for 2 h at 37°C, then washed three times with PBST, dried by tapping on paper towel and stored at -20°C. Before use, once again, the plates were washed with PBST.\nAssay was carried out with 100 µl/well of assay solution containing 40 mM sodium acetate buffer (pH 5.0), 100 µM fondaparinux, 2.5 nM heparanase and serial dilutions of test compounds (tested in triplicate). Plates were sealed with adhesive tape and incubated, in the dark, for 3 h at 37°C, followed by development with 1.69 mM of the tetrazolium salt WST-1 solution in 0.1 M NaOH, for 1 h at 60°C. Then, the absorbance at 560 nm was measured through a microplate reader (Victor 3, Perkin Elmer).\nFinally, the measurements were corrected by subtracting both the reagent background and the inner absorbance value of test compound."}, "VEGF": {"system": "VEGF", "assay": "Real-Time quantitative PCR of VEGF mRNA in HT1080 cells", "type": "cell-based, human", "details": "24 h", "procedure": "To evaluate the effect of heparanase inhibitors on the tumor transcription of genes encoding for proangiogenic factors, such as FGF1/2, VEGF, MMP-9, HSPE-1, the relative mRNA levels were analyzed by quantitative Real-Time Quantitative PCR. To perform the assay, HT1080 (human fibrosarcoma) cells were cultured in complete medium containing 10%FCS (fetal calf serum). Cells were plated in 24-well plates and treated at fixed concentration (i.e., highest non-toxic concentration) of test compounds. After 24 h, cells were detached, collected and total RNA extracted by RNeasy Mini Kit (QIAGEN). Following reverse transcription step, FGF1/2, VEGF, MMP-9, HSPE-1 mRNA levels, were quantified by qPCR using the advanced Universal SYBR Green Supermix (Bio Rad) and ABI PRISM 7900HT Thermal Cycler System (Perkin Elmer), according to the manufacturer's instructions. Appropriate no-RT and non-template controls were included in each 96-well PCR reaction, and dissociation analysis was performed at the end of each run to confirm the specificity of the reaction. Relative levels of RNA were calculated using the ddCt method. Standard curve and sample data were run in duplicate.\nIn the Table 5 a mean value is reported."}, "[1]": {"system": "U87MG (human glioblastoma astrocytoma)", "assay": "Matrigel cell invasion assay, U87MG", "type": "cell-based", "details": "Homo sapiens, U-87 MG, test compound at 2.5 µM, 24 h pre-treatment, 24 h invasion", "procedure": "Heparanase inhibitors were then evaluated for their activity on the invasive potential of HT1080 (human fibrosarcoma), U87MG (human glioblastoma astrocytoma) and U2OS (human osteosarcoma) human cell lines, using the Matrigel cell invasion assay which allows to assess the cell invasion ability of malignant and normal cells.\nInvasion assay was performed using BioCoat cell culture inserts (BioCoat 8.0µm PET Membrane 24 Well Permeable Supports, Corning). Filters were coated with 100 µl of 300 µg/ml Matrigel dissolved in coating buffer (0.01 M Tris pH 8.0, 0.7% NaCl) (Becton-Dickinson Sciences). DMEM (Dulbecco's Modified Eagle's Medium) containing 5% FBS was added to the lower chambers. Cells were pre-treated with heparanase inhibitors for 24 h, detached and added to the upper chambers in media containing the inhibitors. Cells were allowed to invade for 24 h at 37°C in a CO2 incubator and then unmigrated cells were removed from the upper chamber with a cotton swab. The invading cells were fixed, stained with 0.1% crystal violet for 10 min at room temperature, photographed and counted under inverted microscope.\nTest compounds were analyzed at fixed concentration (2.5 µM) for several fields, in duplicates. Activity of test compounds was compared to the reference compound. Activity of most interesting compound was confirmed in a second cell invasion assay. Data were expressed as the percent invasion with respect to cell migration through uncoated insert membrane (see Table 3 below)\nTable 3. […] In Invasion assay, data were expressed as the percent invasion (range) with respect to cell migration through uncoated insert membrane. In Adhesion assay, data were expressed as the percent of adhesion with respect to the control (100%). • Legend • ++: 50-90% • + : < 50% • - : Not Active"}}, "data": [{"smiles": "O=C(O)Cc1ccc2oc(-c3ccc(NC(=O)Nc4ccc(-c5nc6cc(CC(=O)O)ccc6o5)cc4F)c(F)c3)nc2c1", "note": "[Compound 20, 2,2'-(((Carbonylbis(azanediyl))bis(3-fluoro-4,1-phenylene))bis(benzo[d]oxazole-2,5-diyl))diacetic acid]", "values": [{"measurement": "IC50", "setting": "heparanase", "value": "50 to 490", "unit": "nM"}, {"measurement": "Gene Expression (% mRNA vs. control) VEGF", "setting": "VEGF; 2.5 uM", "value": "∼ 72%"}, {"measurement": "inhibition at 2.5 µM", "setting": "[1]", "value": "50 to 90", "unit": "%"}]}, {"smiles": "O=C(O)CNC(=O)Cc1ccc2oc(-c3ccc(NC(=O)Nc4ccc(-c5nc6cc(CC(=O)NCC(=O)O)ccc6o5)cc4F)c(F)c3)nc2c1", "note": "[Compound 25, 2,2'-((2,2'-(((Carbonylbis(azanediyl))bis(3-fluoro-4,1-phenylene))bis(benzo[d]oxazole-2,5-diyl))bis(acetyl))bis(azanediyl))diacetic acid]", "values": [{"measurement": "IC50", "setting": "heparanase", "value": "50 to 490", "unit": "nM"}, {"measurement": "Gene Expression (% mRNA vs. control) VEGF", "setting": "VEGF; 10.0 uM", "value": "∼ 63%"}, {"measurement": "inhibition at 2.5 µM", "setting": "[1]", "value": "50 to 90", "unit": "%"}]}]}
